Laboratory results reported in ChEMBL document CHEMBL3526111, “In vitro hepatotoxicity and cytochrome P450 induction and inhibition characteristics of carnosic acid, a dietary supplement with antiadipogenic properties” (Drug Metab Dispos, 2012).

Tests used:
CYP2E1 = CYP2E1 (Homo sapiens, UniProt P05181); test: Time dependent inhibition of CYP2E1 activity in human hepatocytes after 30 mins by liquid chromatography/tandem mass spectroscopy; type: ADME, cell-based, Hepatocyte
Hepatocyte [1] = test: Cytotoxicity against human hepatocytes assessed as reduction in cell viability after 24 hrs by ATP detection based assay
Hepatocyte [2] = test: Cytotoxicity against human hepatocytes assessed as reduction in cell viability after 24 hrs by LDH release assay; type: cell-based
CYP2C9 = CYP2C9 (Homo sapiens, UniProt P11712); test: Time dependent inhibition of CYP2C9 activity in human hepatocytes after 30 mins by liquid chromatography/tandem mass spectroscopy; type: ADME, cell-based, Hepatocyte
CYP2C19 = CYP2C19 (Homo sapiens, UniProt P33261); test: Time dependent inhibition of CYP2C19 activity in human hepatocytes after 30 mins by liquid chromatography/tandem mass spectroscopy; type: ADME, cell-based, Hepatocyte
Hepatocyte [3] = test: Induction of apoptosis in human hepatocytes assessed as caspase 3/7 activation by caspase-Glo 3/7 assay; type: cell-based
Hepatocyte [4] = test: Cytotoxicity against human hepatocytes assessed as cytoplasm granulation with vacuoles after 24 hrs at 50 to 100 uM; type: cell-based
CYP2C8 = biological target: T1, CYP2C8 (Homo sapiens, UniProt P10632); test: Time dependent inhibition of CYP2C8 activity in human hepatocytes after 30 mins by liquid chromatography/tandem mass spectroscopy; type: ADME, cell-based, Hepatocyte
T1 sequence (P10632 whole entry): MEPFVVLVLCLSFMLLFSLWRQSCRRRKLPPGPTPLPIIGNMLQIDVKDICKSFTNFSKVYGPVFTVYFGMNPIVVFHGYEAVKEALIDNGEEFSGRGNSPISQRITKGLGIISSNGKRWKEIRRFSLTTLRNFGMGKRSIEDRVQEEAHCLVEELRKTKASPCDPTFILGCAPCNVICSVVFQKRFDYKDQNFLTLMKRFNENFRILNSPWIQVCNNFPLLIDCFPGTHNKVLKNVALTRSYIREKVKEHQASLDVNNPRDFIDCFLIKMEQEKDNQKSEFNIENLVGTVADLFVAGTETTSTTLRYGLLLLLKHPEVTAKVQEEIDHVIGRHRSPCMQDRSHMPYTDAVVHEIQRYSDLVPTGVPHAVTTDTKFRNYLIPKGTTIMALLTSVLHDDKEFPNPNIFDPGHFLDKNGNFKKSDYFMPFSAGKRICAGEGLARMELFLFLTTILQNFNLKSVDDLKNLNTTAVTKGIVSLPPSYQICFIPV

SULT2A1 = test: Induction of SULT2A1 mRNA expression in human hepatocytes at 10 uM after 48 hrs relative to untreated control; type: cell-based, Hepatocyte; conditions: read-out: FC
[5] = Cytotoxicity against human hepatocytes assessed as cell viability after 24 hrs at 100 uM by ATP detection based assay; parameters: species or system Hepatocyte; conditions: read-out: Activity
CYP3A4 [6] = test: Induction of CYP3A4 mRNA expression in human hepatocytes at 10 uM after 48 hrs relative to untreated control; type: ADME, cell-based, Hepatocyte; conditions: read-out: FC
Cytochrome P450 3A4 = Cytochrome P450 3A4 (Homo sapiens, UniProt P08684); test: Inhibition of CYP3A4 activity in human hepatocytes after 30 mins by liquid chromatography/tandem mass spectroscopy; type: ADME, cell-based, Hepatocyte
Hepatocyte [7] = test: Cytotoxicity against human hepatocytes assessed as reduction in cell viability after 4 hrs by ATP detection based assay
Cytochrome P450 2C9 = Cytochrome P450 2C9 (Homo sapiens, UniProt P11712); test: Inhibition of CYP2C9 activity in human hepatocytes after 30 mins by liquid chromatography/tandem mass spectroscopy; type: ADME, cell-based, Hepatocyte
CYP2D6 = CYP2D6 (Homo sapiens, UniProt P10635); test: Time dependent inhibition of CYP2D6 activity in human hepatocytes after 30 mins by liquid chromatography/tandem mass spectroscopy; type: ADME, cell-based, Hepatocyte
CYP3A4 [8] = biological target: CYP3A4 (Homo sapiens, UniProt P08684); test: Time dependent inhibition of CYP3A4 activity in human hepatocytes after 30 mins by liquid chromatography/tandem mass spectroscopy; type: ADME, cell-based, Hepatocyte
CYP1A2 = biological target: T2, CYP1A2 (Homo sapiens, UniProt P05177); test: Time dependent inhibition of CYP1A2 activity in human hepatocytes after 30 mins by liquid chromatography/tandem mass spectroscopy; type: ADME, cell-based, Hepatocyte
T2 sequence (P05177 whole entry): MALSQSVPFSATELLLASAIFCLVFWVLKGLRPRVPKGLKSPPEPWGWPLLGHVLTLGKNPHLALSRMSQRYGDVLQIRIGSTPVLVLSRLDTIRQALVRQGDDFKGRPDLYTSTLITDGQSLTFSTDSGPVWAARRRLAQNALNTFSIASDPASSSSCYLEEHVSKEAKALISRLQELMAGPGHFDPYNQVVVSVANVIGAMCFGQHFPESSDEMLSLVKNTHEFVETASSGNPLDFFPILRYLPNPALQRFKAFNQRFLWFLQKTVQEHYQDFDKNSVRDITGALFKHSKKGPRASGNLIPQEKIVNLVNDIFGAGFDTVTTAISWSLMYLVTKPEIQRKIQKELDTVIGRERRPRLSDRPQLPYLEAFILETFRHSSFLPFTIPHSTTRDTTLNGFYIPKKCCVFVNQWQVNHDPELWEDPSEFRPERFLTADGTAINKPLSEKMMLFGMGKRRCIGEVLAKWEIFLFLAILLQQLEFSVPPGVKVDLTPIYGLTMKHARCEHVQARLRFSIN

CYP2B6 [9] = test: Induction of CYP2B6 mRNA expression in human hepatocytes at 10 uM after 48 hrs relative to untreated control; type: ADME, cell-based, Hepatocyte; conditions: read-out: FC
Hepatocyte [10] = test: Cytotoxicity against human hepatocytes assessed as loss of nuclei after 24 hrs at 50 to 100 uM; type: cell-based
CYP2B6 [11] = biological target: T3, CYP2B6 (Homo sapiens, UniProt P20813); test: Time dependent inhibition of CYP2B6 activity in human hepatocytes after 30 mins by liquid chromatography/tandem mass spectroscopy; type: ADME, cell-based, Hepatocyte
T3 sequence (P20813 whole entry): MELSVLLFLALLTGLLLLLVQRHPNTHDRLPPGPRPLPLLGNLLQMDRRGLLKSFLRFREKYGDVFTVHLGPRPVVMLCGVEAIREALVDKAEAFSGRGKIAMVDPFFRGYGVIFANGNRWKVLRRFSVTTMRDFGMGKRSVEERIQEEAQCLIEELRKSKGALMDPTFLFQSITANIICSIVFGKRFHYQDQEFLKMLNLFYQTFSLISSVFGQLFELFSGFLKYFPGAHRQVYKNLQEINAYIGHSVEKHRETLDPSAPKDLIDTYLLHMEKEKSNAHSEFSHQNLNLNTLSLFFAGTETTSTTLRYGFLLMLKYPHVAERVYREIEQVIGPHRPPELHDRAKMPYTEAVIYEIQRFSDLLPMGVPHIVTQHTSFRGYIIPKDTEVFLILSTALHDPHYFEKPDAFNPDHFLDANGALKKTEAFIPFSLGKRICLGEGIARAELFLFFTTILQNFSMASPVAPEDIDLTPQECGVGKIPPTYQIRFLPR

Hepatocyte [12] = test: Cytotoxicity against human hepatocytes assessed as reduction in cell viability after 4 hrs by LDH release assay; type: cell-based

CYP3A4 (Homo sapiens, UniProt P08684), sequence (P08684 whole entry): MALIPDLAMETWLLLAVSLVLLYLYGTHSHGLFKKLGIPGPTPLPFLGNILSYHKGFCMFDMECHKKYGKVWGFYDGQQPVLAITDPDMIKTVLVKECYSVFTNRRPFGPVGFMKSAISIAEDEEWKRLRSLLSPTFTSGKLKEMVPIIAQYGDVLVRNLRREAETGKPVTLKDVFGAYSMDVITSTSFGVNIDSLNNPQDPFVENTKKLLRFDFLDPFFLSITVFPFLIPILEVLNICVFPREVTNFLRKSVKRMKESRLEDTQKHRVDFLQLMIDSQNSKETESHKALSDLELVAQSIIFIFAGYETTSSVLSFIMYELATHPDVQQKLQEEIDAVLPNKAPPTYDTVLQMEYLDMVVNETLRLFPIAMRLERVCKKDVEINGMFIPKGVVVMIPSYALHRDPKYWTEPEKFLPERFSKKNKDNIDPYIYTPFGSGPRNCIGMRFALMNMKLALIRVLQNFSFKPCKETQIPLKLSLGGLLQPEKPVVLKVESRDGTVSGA
Cytochrome P450 3A4, sequence (P08684 whole entry): as above
CYP2E1, sequence (P05181 whole entry): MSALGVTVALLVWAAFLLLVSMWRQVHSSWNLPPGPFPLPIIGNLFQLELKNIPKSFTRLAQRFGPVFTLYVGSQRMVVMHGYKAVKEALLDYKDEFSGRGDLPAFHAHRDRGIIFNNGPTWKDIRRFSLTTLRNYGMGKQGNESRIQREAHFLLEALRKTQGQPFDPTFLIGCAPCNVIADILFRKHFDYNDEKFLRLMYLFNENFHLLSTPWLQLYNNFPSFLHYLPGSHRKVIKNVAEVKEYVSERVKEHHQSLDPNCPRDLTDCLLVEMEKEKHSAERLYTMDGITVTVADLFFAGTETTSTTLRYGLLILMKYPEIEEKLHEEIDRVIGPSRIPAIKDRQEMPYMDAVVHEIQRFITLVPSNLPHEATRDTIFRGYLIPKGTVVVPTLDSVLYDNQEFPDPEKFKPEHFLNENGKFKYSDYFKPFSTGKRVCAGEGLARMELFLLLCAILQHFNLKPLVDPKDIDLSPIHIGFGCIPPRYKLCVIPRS
CYP2C19, sequence (P33261 whole entry): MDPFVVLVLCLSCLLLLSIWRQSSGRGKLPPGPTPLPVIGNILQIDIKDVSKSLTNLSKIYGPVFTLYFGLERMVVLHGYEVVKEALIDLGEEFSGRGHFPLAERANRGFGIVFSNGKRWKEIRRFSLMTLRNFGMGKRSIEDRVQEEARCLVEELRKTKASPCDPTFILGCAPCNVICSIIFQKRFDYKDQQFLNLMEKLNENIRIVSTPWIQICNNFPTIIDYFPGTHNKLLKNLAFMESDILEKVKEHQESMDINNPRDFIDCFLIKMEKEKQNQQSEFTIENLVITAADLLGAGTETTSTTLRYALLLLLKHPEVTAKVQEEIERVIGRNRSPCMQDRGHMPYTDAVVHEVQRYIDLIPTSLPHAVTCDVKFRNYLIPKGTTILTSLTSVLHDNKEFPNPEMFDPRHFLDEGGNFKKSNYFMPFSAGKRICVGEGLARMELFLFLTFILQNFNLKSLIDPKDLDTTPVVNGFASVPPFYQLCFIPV
CYP2D6, sequence (P10635 whole entry): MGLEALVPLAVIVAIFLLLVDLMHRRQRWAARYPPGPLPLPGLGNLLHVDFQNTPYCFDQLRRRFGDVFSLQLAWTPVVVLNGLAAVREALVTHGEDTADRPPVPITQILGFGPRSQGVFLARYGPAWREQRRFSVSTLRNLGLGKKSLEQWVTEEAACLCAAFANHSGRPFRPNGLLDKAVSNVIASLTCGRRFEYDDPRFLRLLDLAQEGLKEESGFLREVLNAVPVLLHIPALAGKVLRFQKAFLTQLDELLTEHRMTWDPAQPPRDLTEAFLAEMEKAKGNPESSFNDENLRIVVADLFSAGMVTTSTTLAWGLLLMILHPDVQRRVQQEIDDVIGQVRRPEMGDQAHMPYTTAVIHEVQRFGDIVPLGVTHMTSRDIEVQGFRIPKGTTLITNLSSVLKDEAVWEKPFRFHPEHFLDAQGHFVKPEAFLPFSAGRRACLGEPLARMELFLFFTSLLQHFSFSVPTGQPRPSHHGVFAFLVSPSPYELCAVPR
CYP2C9, sequence (P11712 whole entry): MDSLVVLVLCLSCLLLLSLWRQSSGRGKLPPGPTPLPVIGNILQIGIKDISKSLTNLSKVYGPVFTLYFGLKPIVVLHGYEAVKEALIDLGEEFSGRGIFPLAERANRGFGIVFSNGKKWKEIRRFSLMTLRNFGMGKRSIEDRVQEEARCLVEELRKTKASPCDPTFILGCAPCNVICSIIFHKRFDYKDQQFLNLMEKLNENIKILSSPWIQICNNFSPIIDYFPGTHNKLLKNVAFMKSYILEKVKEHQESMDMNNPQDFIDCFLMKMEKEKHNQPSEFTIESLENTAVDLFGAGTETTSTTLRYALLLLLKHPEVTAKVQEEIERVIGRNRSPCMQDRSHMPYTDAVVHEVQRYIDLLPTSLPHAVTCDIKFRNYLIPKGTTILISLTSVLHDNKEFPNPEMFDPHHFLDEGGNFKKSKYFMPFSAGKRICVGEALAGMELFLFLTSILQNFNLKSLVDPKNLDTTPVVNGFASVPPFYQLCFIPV
Cytochrome P450 2C9, sequence (P11712 whole entry): as above

## CC(C)c1cc2c(c(O)c1O)[C@@]1(C(=O)O)CCCC(C)(C)[C@@H]1CC2 [CARNOSIC ACID]
CYP2E1
  inhibition at 0.5 h: < 11%
Hepatocyte [1]
  EC50: 94.8 µM
Hepatocyte [2]
  EC50: Not Active
CYP2C9
  inhibition at 0.5 h: < 11%
CYP2C19
  inhibition at 0.5 h: < 11%
Hepatocyte [3]
  Activity: Non-toxic
Hepatocyte [4]
  Activity: Toxic
CYP2C8
  inhibition at 0.5 h: < 11%
SULT2A1
  fold induction at 48 h, 10 µM: 2.4
[5]
  viability at 24 h, 100 µM: < 10%
CYP3A4 [6]
  fold induction at 48 h, 10 µM: 13.9
Cytochrome P450 3A4
  Ki: 4.3 µM
Hepatocyte [7]
  EC50: 95.7 µM
Cytochrome P450 2C9
  Ki: 9.2 µM
CYP2D6
  inhibition at 0.5 h: < 11%
CYP3A4 [8]
  inhibition at 0.5 h: < 11%
CYP1A2
  inhibition at 0.5 h: < 11%
CYP2B6 [9]
  fold induction at 48 h, 10 µM: 4.5
Hepatocyte [10]
  Activity: Toxic
CYP2B6 [11]
  inhibition at 0.5 h: < 11%

## CC/C(=C(\c1ccccc1)c1ccc(OCCN(C)C)cc1)c1ccccc1 [TAMOXIFEN]
Hepatocyte [1]
  EC50: 34.4 µM
Hepatocyte [2]
  EC50: Not Active
Hepatocyte [3]
  Activity: Toxic
Hepatocyte [7]
  EC50: 71.4 µM
Hepatocyte [12]
  EC50: 67.6 µM
